From PubChem BioAssay AID1013 (Columbia University Molecular Screening Center, 2008)
Active and inactive are the calls of the source. No rule for the calls is given here.

Test system: TNFa-stimulated cells, VCAM1 expression imaging
Assay: inhibitors of TNFa-induced VCAM1 expression, confirmation, imaging, TNFa stimulus, retest and dose response (AID 1013);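 as to cell count: compound on cells 1 h before TNFa then 24 h more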
Details: not given
For CCOc1ccc(S(=O)(=O)Nc2cc(OC)ccc2OC)cc1, the IC50 was 1.78 µM.
In the case of COc1ccc(S(=O)(=O)Nc2cc3c(C(C)=O)c(C)oc3c3ccccc23)cc1, the IC50 is reported as > 10 µM (inactive).
For COc1ccc(NS(=O)(=O)c2cc(C)ccc2NC(=O)c2cc(C)oc2C)cc1, the IC50 was 3.16 µM.
In the case of O=Cc1cc2ccccc2nc1SCc1ccc(Cl)cc1, the IC50 is reported as > 10 µM (inactive).
CN(C)c1ccc(C(=O)c2ccc(N(C)C)c3ccccc23)cc1 showed an IC50 of 1.72 µM.
For CC(=O)c1c(C)oc2ccc(N(C(C)=O)S(=O)(=O)c3ccc(Cl)c([N+](=O)[O-])c3)cc12, the IC50 was > 10 µM (inactive).
With CC(=O)c1ccc(Oc2cc(C)nc(-n3nc(C)cc3C)n2)cc1 the IC50 was 3.83 µM.
O=C(c1ccco1)N1CCN(C(=O)N2c3ccccc3Sc3ccccc32)CC1 showed an IC50 of 3.52 µM.
In the case of COc1ccc(CCNc2nnc(Sc3nnnn3-c3ccccc3)s2)cc1OC, the IC50 is reported as 1.61 µM.
Work on CCN(CC)c1ccc(-c2nn3c(-c4ccccc4OC)nnc3s2)cc1 yielded an IC50 of 2.97 µM.
With Cc1ccc(CSc2nc3ccccc3cc2C=O)cc1 the IC50 was > 10 µM (inactive).
For COc1ccc(C(=O)C(CN2CCOCC2)c2ccccc2)cc1 (centres undefined), the IC50 was 2.68 µM.
Cc1ccc2[nH]c(-c3ccccc3)cc(=O)c2c1 showed an IC50 of 4.49 µM.
With Cc1ccccc1CS(=O)(=O)c1nnc([C@H](Cc2ccccc2)NC(=O)OC(C)(C)C)o1 the IC50 was > 10 µM (inactive).
Cc1ccc(C(=O)OCn2ncc(Cl)c(Cl)c2=O)cc1 gave an IC50 of 2.31 µM.
Compound CCCCCCCCCCn1c2c(c(=N)c3c1CCC3)CCC2 has an IC50 of 0.55 µM.

Test system: not listed separately
Assay: as above
Details: TNFa-stimulated cells, VCAM1 expression imaging; at 2 µM; stronger effect = higher value
With C=CCn1c(SCC(=O)Nc2ccc(C(=O)OCC)cc2)nnc1-c1sc(N)nc1C the inhibition was 9.5% (inactive).
For CCOC(=O)/C(=C\c1cccnc1)C(=O)c1cc(C(C)=O)c(Nc2ccccc2)s1, the inhibition was 19.8% (inactive).
In the case of Cc1oc(-c2ccc(Cl)cc2)cc1-c1nn2c(-c3ccoc3C)nnc2s1, the inhibition is reported as -0.1% (inactive).
With COCCCNC(=O)c1cn(C)c(=O)c2cc(OC)c(OC)cc12 the inhibition was 4.1% (inactive).
With CN(CC(=O)NCc1ccncc1)S(=O)(=O)c1ccc(F)cc1 the inhibition was 0.2% (inactive).
For O=S(=O)(Nc1ccc(-n2cccc2)cc1)c1ccccc1, the inhibition was 11.9% (inactive).
In the case of CNC(=O)CN(c1ccc(OC)cc1)S(=O)(=O)c1ccc(F)cc1, the inhibition is reported as 6.8% (inactive).
With Cc1ccc(C(=O)CSc2nnc(COc3ccc(C#N)cc3)n2-c2ccccc2)cc1 the inhibition was -0.7% (inactive).
For CCNC(=O)CCn1nc(-c2ccc(Cl)cc2)c2ccccc2c1=O, the inhibition was -0.3% (inactive).
In the case of CC1Cc2cc(-c3csc(NC(=O)Cc4cccs4)n3)ccc2N1S(C)(=O)=O (centres undefined), the inhibition is reported as 0.8% (inactive).
In the case of Cc1oc2cc3c(C(=O)N4CCCCC4)c(C)oc3cc2c1C(=O)N1CCCCC1, the inhibition is reported as 4.7% (inactive).
In the case of O=C(Cn1cccc1C(=O)c1ccccc1)NCCN1CCOCC1, the inhibition is reported as -13.5% (inactive).
In the case of O=C(O)Cc1ccc(NC(=O)C2CC=CCC2C(=O)O)cc1 (centres undefined), the inhibition is reported as 4.4% (inactive).
In the case of O=C1CC(c2cc(Br)ccc2F)c2cc3c(cc2N1)CCC3 (centres undefined), the inhibition is reported as 24.3% (inactive).
In the case of Cc1nc(NC(C)C)c2oc3ccccc3c2n1, the inhibition is reported as 18.8% (inactive).
In the case of Cc1n[nH]c(=O)nc1NCc1ccccc1, the inhibition is reported as -9.9% (inactive).
For Cc1nnc(SCc2cn3ccsc3n2)n(N)c1=O, the inhibition was -9.6% (inactive).
In the case of CCCCC(=O)NC(=S)Nc1ccccc1C(=O)Nc1ccccc1, the inhibition is reported as -2.5% (inactive).
For S=c1[nH]nc(COc2ccc3c(c2)OCO3)n1-c1ccccc1, the inhibition was 1% (inactive).
With OC1(c2cccc(C(F)(F)F)c2)CCN(c2ncnc3c2[nH]c2ccc(F)cc23)CC1 the inhibition was 1% (inactive).
With O=C(CN1CCN(c2nc(-c3ccc(F)cc3)cs2)CC1)Nc1ccc2c(c1)OCO2 the inhibition was 16.2% (inactive).
For CCOc1ccccc1N1CCN(C(=O)c2cccc(-c3ccc(O)cc3)c2)CC1, the inhibition was -6.4% (inactive).
In the case of COC(=O)c1[nH]c2cc(OC)ccc2c1NC(=O)CN1CCC(C(N)=O)(N2CCCCC2)CC1, the inhibition is reported as -3.9% (inactive).
In the case of CCc1cccc(CC)c1NC(=O)C1SC(=Nc2ccccc2C)C(c2nc3ccccc3s2)=C1N (centres undefined), the inhibition is reported as 3.9% (inactive).
In the case of COc1ccc2c(c1)CCc1c(C(=O)N3CC4(C)CC3CC(C)(C)C4)noc1-2 (centres undefined), the inhibition is reported as -14.4% (inactive).
In the case of COC(=O)c1sccc1NC(=O)c1ccc(Br)s1, the inhibition is reported as 4% (inactive).
With CCCCOCCCNC(=O)c1cccs1 the inhibition was -15.4% (inactive).
For Cc1cc(C(=O)NN)c2cc(Br)ccc2n1, the inhibition was -7.2% (inactive).
In the case of OCCCCNc1cccc2ccccc12, the inhibition is reported as -3.2% (inactive).
For CS(=O)(=O)N(CC(=O)NCc1ccccc1Cl)Cc1ccccc1, the inhibition was -0.5% (inactive).
For CCOC(=O)c1cnn(-c2nc(-c3ccc(C)cc3)cs2)c1C(F)(F)F, the inhibition was 8.3% (inactive).
In the case of CCNc1nc(NCC)n2c(SCc3ccc(F)cc3)nnc2n1, the inhibition is reported as -6.3% (inactive).
In the case of Nc1sccc1C(=O)c1ccc(Cl)cc1, the inhibition is reported as -3.9% (inactive).
For COc1ccc(-c2cc(C(F)(F)F)nc(S(=O)(=O)CCC(=O)N3CCOCC3)n2)cc1, the inhibition was 20.8% (inactive).
In the case of CC(Sc1nc(N)cc(=O)[nH]1)C(=O)NC1CCCCC1 (centres undefined), the inhibition is reported as -7.6% (inactive).
With O=C1CC(c2ccccc2)Cc2nc3ncnn3cc21 (centres undefined) the inhibition was -11.3% (inactive).
For CC(=O)c1cccc(Nc2nc(-c3cccc([N+](=O)[O-])c3)cs2)c1, the inhibition was 9.3% (inactive).
For CCCCSc1nc(C)cc(SCC(=O)N/N=C/c2cccc(OC)c2O)n1, the inhibition was 22.8% (inactive).
In the case of CC(C)(C)SCCNC(=O)CN(c1ccc(F)cc1)S(C)(=O)=O, the inhibition is reported as -12.2% (inactive).
In the case of Cc1cc(C)n(-c2nc3ccccc3nc2N2CCN(C(=O)c3ccc(Cl)cc3)CC2)n1, the inhibition is reported as -5.2% (inactive).
For O=C(CN1CCSCC1)N1CCc2[nH]c3ccc(Br)cc3c2C1, the inhibition was -11.1% (inactive).
For CCOC(=O)c1ccc(-n2c(=S)sc3c(=O)[nH]c(C)nc32)cc1, the inhibition was -10.7% (inactive).
In the case of COc1ccc(CC(=O)OCc2cc3ccc(C)cc3[nH]c2=O)cc1, the inhibition is reported as 6.4% (inactive).
For O=C(COC(=O)C1(c2ccccc2F)CCCC1)NC1CCS(=O)(=O)C1 (centres undefined), the inhibition was -6.3% (inactive).
For CN1C(=O)C2(NCCc3c2[nH]c2ccccc32)c2ccccc21 (centres undefined), the inhibition was -19.9% (inactive).
For Nc1ccccc1NC(=O)c1ccccc1N, the inhibition was -3.2% (inactive).
With CCOC(=O)C1=C(c2ccccc2)OC(N)=C(C#N)C1c1ccco1 (centres undefined) the inhibition was 13.3% (inactive).
With COc1ccc(/C=N/NC(=O)c2ccccc2Cl)cc1CSc1nc2ccccc2s1 the inhibition was 13.7% (inactive).
For N#Cc1nc(-c2ccco2)oc1N1CCOCC1, the inhibition was -13.5% (inactive).
In the case of CCCn1c(SCC(=O)NCc2ccco2)nnc1C(C)C, the inhibition is reported as -9.8% (inactive).
In the case of Cc1ccc(-c2nn(C(C)(C)C)c3ncnc(N)c23)cc1, the inhibition is reported as -0.9% (inactive).
In the case of CCN1CCC2(CC1)C(C#N)=C(N)Oc1c2sc2nc(C)cc(C)c12, the inhibition is reported as -4.5% (inactive).
For COc1cc(/C=N/NC(=O)Nc2ccccc2)ccc1OCCOc1ccccc1C, the inhibition was 33.1% (inactive).
With Cc1noc(C)c1S(=O)(=O)N1CCC2(CC1)OCCO2 the inhibition was 7.1% (inactive).

Same assay, conditions: TNFa-stimulated cells, VCAM1 expression imaging; cell count; at 10 µM; stronger effect = lower value
CCOc1ccc(S(=O)(=O)Nc2cc(OC)ccc2OC)cc1 showed a cell count of 45.4%.
For COc1ccc(S(=O)(=O)Nc2cc3c(C(C)=O)c(C)oc3c3ccccc23)cc1, the cell count was 113%.
With COc1ccc(NS(=O)(=O)c2cc(C)ccc2NC(=O)c2cc(C)oc2C)cc1 the cell count was 71%.
Compound O=Cc1cc2ccccc2nc1SCc1ccc(Cl)cc1 has a cell count of 99.9%.
In the case of CN(C)c1ccc(C(=O)c2ccc(N(C)C)c3ccccc23)cc1, the cell count is reported as 27.7%.
Compound CC(=O)c1c(C)oc2ccc(N(C(C)=O)S(=O)(=O)c3ccc(Cl)c([N+](=O)[O-])c3)cc12 has a cell count of 104%.
For CC(=O)c1ccc(Oc2cc(C)nc(-n3nc(C)cc3C)n2)cc1, the cell count was 46.9%.
O=C(c1ccco1)N1CCN(C(=O)N2c3ccccc3Sc3ccccc32)CC1 showed a cell count of 40.3%.
Compound COc1ccc(CCNc2nnc(Sc3nnnn3-c3ccccc3)s2)cc1OC has a cell count of 27.4%.
With CCN(CC)c1ccc(-c2nn3c(-c4ccccc4OC)nnc3s2)cc1 the cell count was 31.6%.
Work on Cc1ccc(CSc2nc3ccccc3cc2C=O)cc1 yielded a cell count of 110%.
With COc1ccc(C(=O)C(CN2CCOCC2)c2ccccc2)cc1 (centres undefined) the cell count was 73.8%.
In the case of Cc1ccc2[nH]c(-c3ccccc3)cc(=O)c2c1, the cell count is reported as 63.3%.
Cc1ccccc1CS(=O)(=O)c1nnc([C@H](Cc2ccccc2)NC(=O)OC(C)(C)C)o1 showed a cell count of 114%.
